d = 2'-deoxy (DNA); r = 2'-OH (RNA)
System: LHPP gene
Test: High-throughput screening of saRNAs targeting LHPP promoter: LHPP mRNA by one-step RT-qPCR in Huh7 cells
Type: cell-based, human
Details: 10 nM saRNA, 72 hours, relative to control (Mock)
Summary of the method: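 Huh7 cells were transfected with 10 nM saRNA using RNAiMax and lysed 72 h later. LHPP mRNA was quantified by one-step RT-qPCR in triplicate wells. Expression was normalised to HPRT1 and TBP and given as fold change versus mock-transfected cells.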

| Substance | Fold of changes in relative LHPP mRNA expression level | Fold of changes in relative LHPP mRNA expression level (log2) |
| --- | --- | --- |
| RAG7-92: saRNA duplex; sense AGGACACCGUUUCAGGGGCTT (SEQ ID NO: 155), antisense GCCCCUGAAACGGUGUCCUTT (SEQ ID NO: 319) (sugars from the 5' end r19 d2, backbone not given here) | 1.11 fold | 0.15 log2 |
| RAG7-695: saRNA duplex; sense CAGGUCCUAUGCAUCCUCATT (SEQ ID NO: 54), antisense UGAGGAUGCAUAGGACCUGTT (SEQ ID NO: 218) (sugars from the 5' end r19 d2, backbone not given here) | 1.36 fold | 0.44 log2 |
| RAG7-33: saRNA duplex; sense UUUGCACCCGGUCUUCUUGTT (SEQ ID NO: 119), antisense CAAGAAGACCGGGUGCAAATT (SEQ ID NO: 283) (sugars from the 5' end r19 d2, backbone not given here) | 1.18 fold | 0.24 log2 |
| RAG7-886: saRNA duplex; sense ACCAGAAGUAAAGUGUUCUTT (SEQ ID NO: 25), antisense AGAACACUUUACUUCUGGUTT (SEQ ID NO: 189) (sugars from the 5' end r19 d2, backbone not given here) | 1.52 fold | 0.60 log2 |
| RAG7-107: saRNA duplex; sense AGAAAGCUUCCGAAAAGGATT (SEQ ID NO: 156), antisense UCCUUUUCGGAAGCUUUCUTT (SEQ ID NO: 320) (sugars from the 5' end r19 d2, backbone not given here) | 1.11 fold | 0.15 log2 |
| RAG7-828: saRNA duplex; sense UGAGGAAACUCCUCCCUUUTT (SEQ ID NO: 108), antisense AAAGGGAGGAGUUUCCUCATT (SEQ ID NO: 272) (sugars from the 5' end r19 d2, backbone not given here) | 1.20 fold | 0.26 log2 |
| RAG7-690: saRNA duplex; sense CCUAUGCAUCCUCAUCUAUTT (SEQ ID NO: 42), antisense AUAGAUGAGGAUGCAUAGGTT (SEQ ID NO: 206) (sugars from the 5' end r19 d2, backbone not given here) | 1.42 fold | 0.51 log2 |
| RAG7-914: saRNA duplex; sense CUUCUUUGAAAGCUCAAAGTT (SEQ ID NO: 143), antisense CUUUGAGCUUUCAAAGAAGTT (SEQ ID NO: 307) (sugars from the 5' end r19 d2, backbone not given here) | 1.14 fold | 0.19 log2 |
| RAG7-113: saRNA duplex; sense CUGGGAAGAAAGCUUCCGATT (SEQ ID NO: 120), antisense UCGGAAGCUUUCUUCCCAGTT (SEQ ID NO: 284) (sugars from the 5' end r19 d2, backbone not given here) | 1.18 fold | 0.24 log2 |
| RAG7-850: saRNA duplex; sense UUGAAAGGUUCCGAGGGGCTT (SEQ ID NO: 46), antisense GCCCCUCGGAACCUUUCAATT (SEQ ID NO: 210) (sugars from the 5' end r19 d2, backbone not given here) | 1.39 fold | 0.47 log2 |
| RAG7-677: saRNA duplex; sense AUCUAUGCAGGGCUGUUAUTT (SEQ ID NO: 20), antisense AUAACAGCCCUGCAUAGAUTT (SEQ ID NO: 184) (sugars from the 5' end r19 d2, backbone not given here) | 1.56 fold | 0.64 log2 |
| RAG7-693: saRNA duplex; sense GGUCCUAUGCAUCCUCAUCTT (SEQ ID NO: 98), antisense GAUGAGGAUGCAUAGGACCTT (SEQ ID NO: 262) (sugars from the 5' end r19 d2, backbone not given here) | 1.22 fold | 0.29 log2 |
| RAG7-720: saRNA duplex; sense UGAUAGUCCCGUUUUCUUCTT (SEQ ID NO: 62), antisense GAAGAAAACGGGACUAUCATT (SEQ ID NO: 226) (sugars from the 5' end r19 d2, backbone not given here) | 1.33 fold | 0.41 log2 |
| RAG7-676: saRNA duplex; sense UCUAUGCAGGGCUGUUAUCTT (SEQ ID NO: 83), antisense GAUAACAGCCCUGCAUAGATT (SEQ ID NO: 247) (sugars from the 5' end r19 d2, backbone not given here) | 1.26 fold | 0.33 log2 |
| RAG7-139: saRNA duplex; sense UUUCCUGCUCUUUGUCCGCTT (SEQ ID NO: 7), antisense GCGGACAAAGAGCAGGAAATT (SEQ ID NO: 171) (sugars from the 5' end r19 d2, backbone not given here) | 1.73 fold | 0.79 log2 |
| RAG7-738: saRNA duplex; sense CCUGGGUUUAACGCAUUGUTT (SEQ ID NO: 159), antisense ACAAUGCGUUAAACCCAGGTT (SEQ ID NO: 323) (sugars from the 5' end r19 d2, backbone not given here) | 1.11 fold | 0.15 log2 |
| RAG7-193: saRNA duplex; sense GUGCCUUCUUGUCUCAAUUTT (SEQ ID NO: 113), antisense AAUUGAGACAAGAAGGCACTT (SEQ ID NO: 277) (sugars from the 5' end r19 d2, backbone not given here) | 1.19 fold | 0.26 log2 |
| RAG7-32: saRNA duplex; sense UUGCACCCGGUCUUCUUGCTT (SEQ ID NO: 44), antisense GCAAGAAGACCGGGUGCAATT (SEQ ID NO: 208) (sugars from the 5' end r19 d2, backbone not given here) | 1.40 fold | 0.49 log2 |
| RAG7-678: saRNA duplex; sense CAUCUAUGCAGGGCUGUUATT (SEQ ID NO: 63), antisense UAACAGCCCUGCAUAGAUGTT (SEQ ID NO: 227) (sugars from the 5' end r19 d2, backbone not given here) | 1.33 fold | 0.41 log2 |
| RAG7-95: saRNA duplex; sense AAAAGGACACCGUUUCAGGTT (SEQ ID NO: 12), antisense CCUGAAACGGUGUCCUUUUTT (SEQ ID NO: 176) (sugars from the 5' end r19 d2, backbone not given here) | 1.67 fold | 0.74 log2 |
| RAG7-847: saRNA duplex; sense AAAGGUUCCGAGGGGCCAUTT (SEQ ID NO: 34), antisense AUGGCCCCUCGGAACCUUUTT (SEQ ID NO: 198) (sugars from the 5' end r19 d2, backbone not given here) | 1.48 fold | 0.56 log2 |
| RAG7-736: saRNA duplex; sense UGGGUUUAACGCAUUGUGATT (SEQ ID NO: 131), antisense UCACAAUGCGUUAAACCCATT (SEQ ID NO: 295) (sugars from the 5' end r19 d2, backbone not given here) | 1.16 fold | 0.22 log2 |
| RAG7-119: saRNA duplex; sense GAUCUCCUGGGAAGAAAGCTT (SEQ ID NO: 57), antisense GCUUUCUUCCCAGGAGAUCTT (SEQ ID NO: 221) (sugars from the 5' end r19 d2, backbone not given here) | 1.35 fold | 0.43 log2 |
| RAG7-883: saRNA duplex; sense AGAAGUAAAGUGUUCUCGUTT (SEQ ID NO: 161), antisense ACGAGAACACUUUACUUCUTT (SEQ ID NO: 325) (sugars from the 5' end r19 d2, backbone not given here) | 1.11 fold | 0.14 log2 |
| RAG7-170: saRNA duplex; sense UUUGACCUUUCUUAGGGACTT (SEQ ID NO: 132), antisense GUCCCUAAGAAAGGUCAAATT (SEQ ID NO: 296) (sugars from the 5' end r19 d2, backbone not given here) | 1.16 fold | 0.21 log2 |
